The text below walks through data of patent US7592345B2, “Piperazine and [1,4]diazepan derivatives as NK antagonists” (Hoffmann-La Roche Inc., priority 2007, dated 2009).

Molecules are shown by their SMILES.

This assay deals with T1, recombinant human NK3 receptor (Homo sapiens, UniProt P29371).
T1 construct: expressed in transfected cells; host or cells: HEK293 cells (transient expression), membranes
T1 sequence (P29371 1-465): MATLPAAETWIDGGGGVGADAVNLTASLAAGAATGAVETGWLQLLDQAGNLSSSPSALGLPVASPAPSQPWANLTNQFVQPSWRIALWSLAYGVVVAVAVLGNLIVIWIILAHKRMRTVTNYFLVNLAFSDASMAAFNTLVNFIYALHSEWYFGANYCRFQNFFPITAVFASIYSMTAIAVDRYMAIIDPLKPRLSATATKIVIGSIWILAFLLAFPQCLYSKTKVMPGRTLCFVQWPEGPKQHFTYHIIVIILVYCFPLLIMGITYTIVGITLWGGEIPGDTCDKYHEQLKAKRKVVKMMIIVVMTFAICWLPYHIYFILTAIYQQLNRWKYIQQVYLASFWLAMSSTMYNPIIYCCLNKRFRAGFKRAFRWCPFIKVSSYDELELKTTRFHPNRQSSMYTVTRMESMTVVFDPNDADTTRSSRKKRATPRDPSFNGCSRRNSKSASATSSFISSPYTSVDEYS
The assay can be described thus: [3H]SR142801 competition binding assay. The settings on record: [3H]SR142801, membranes from HEK293 cells transiently expressing recombinant human NK3 receptor; read-out: hNK3 Ki. How it is done:
[^3H]SR142801 Competition Binding Assay
hNK3 receptor binding experiment were performed using [^3H]SR142801 (Catalog No. TRK1035, specific activity: 74.0 Ci/mmol, Amersham, GE Healthcare UK limited, Buckinghamshire, UK) and membrane isolated from HEK293 cells transiently expressing recombinant human NK3 receptor. After thawing, the membrane homogenates were centrifuged at 48,000×g for 10 min at 4° C., the pellets were resuspended in the 50 mM Tris-HCl, 4 mM MnCl2, 1 μM phosphoramidon, 0.1% BSA binding buffer at pH 7.4 to a final assay concentration of 5 μg protein/well. For inhibition experiments, membranes were incubated with [^3H]SR142801 at a concentration equal to KD value of radioligand and 10 concentrations of the inhibitory compound (0.0003-10 μM) (in a total reaction volume of 500 μl) for 75 min at room temperature (RT). At the end of the incubation, membranes were filtered onto unitfilter (96-well white microplate with bonded GF/C filter preincubated 1 h in 0.3% PEI+0.3% BSA, Packard BioScience, Meriden, Conn.) with a Filtermate 196 harvester (Packard BioScience) and washed 4 times with ice-cold 50 mM Tris-HCl, pH 7.4 buffer. Nonspecific binding was measured in the presence of 10 μM SB222200 for both radioligands. The radioactivity on the filter was counted (5 min) on a Packard Top-count microplate scintillation counter with quenching correction after addition of 45 μl of microscint 40 (Canberra Packard S. A., Zürich, Switzerland) and shaking for 1 h. Inhibition curves were fitted according to the Hill equation: y=100/(1+(x/IC50)^nH), where nH=slope factor using Excel-fit 4 software (Microsoft). IC50 values were derived from the inhibition curve and the affinity constant (Ki) values were calculated using the Cheng-Prussoff equation Ki=IC50/(1+[L]/KD) where [L] is the concentration of radioligand and KD is its dissociation constant at the receptor, derived from the saturation isotherm. All experiments were performed in duplicate and the mean±standard error (SEM) of the individual Ki values was calculated.

As usually defined, the Ki is the equilibrium dissociation constant of an inhibitor or competing ligand from its target. `C[C@H]1CN(CC[C@](C)(C(=O)NCc2ccc(Cl)c(Cl)c2)c2ccc(Cl)c(Cl)c2)CCN1S(C)(=O)=O` (single isomer, unassigned) [Example 93, (S or R)—N-(3,4-Dichloro-benzyl)-2-(3,4-dichloro-phenyl)-4-((R)-4-methanesulfonyl-3-methyl-piperazin-1-yl)-2-methyl-butyramide]: the Ki is 19.2 nM. For `C[C@H]1CN(CC[C@@](C)(C(=O)NCc2ccc(Cl)c(Cl)c2)c2ccc(Cl)c(Cl)c2)CCN1S(C)(=O)=O` (single isomer, unassigned) [Example 94, (R or S)—N-(3,4-Dichloro-benzyl)-2-(3,4-dichloro-phenyl)-4-((R)-4-methanesulfonyl-3-methyl-piperazin-1-yl)-2-methyl-butyramide] the value was 112 nM; for `CC(CCN1CCN(S(C)(=O)=O)CC1)(C(=O)N[C@@H](CO)c1ccccc1)c1ccc(Cl)c(Cl)c1` (single isomer, unassigned) [Example 128, (R or S)-2-(3,4-Dichloro-phenyl)-N-((R)-2-hydroxy-1-phenyl-ethyl)-4-(4-methanesulfonyl-piperazin-1-yl)-2-methyl-butyramide], 40.6 nM.

For `CC(CCN1CCN(S(C)(=O)=O)CC1)(C(=O)N[C@@H](CO)c1ccccc1)c1ccc(Cl)c(Cl)c1` (single isomer, unassigned) [Example 129, (S or R)-2-(3,4-Dichloro-phenyl)-N-((R)-2-hydroxy-1-phenyl-ethyl)-4-(4-methanesulfonyl-piperazin-1-yl)-2-methyl-butyramide], the Ki came out at 334 nM. For `CN(Cc1ccc(Cl)cc1)C(=O)C(CCN1CCN(S(C)(=O)=O)CC1)c1ccc(Cl)c(Cl)c1` (stereo not shown) [Example 1, N-(4-Chloro-benzyl)-2-(3,4-dichloro-phenyl)-4-(4-methanesulfonyl-piperazin-1-yl)-N-methyl-butyramide], the Ki came to 171 nM. On to `CN(Cc1ccc(-c2ccncc2)cc1)C(=O)C(CCN1CCN(S(C)(=O)=O)CC1)c1ccc(Cl)c(Cl)c1` (stereo not shown) [Example 2, 2-(3,4-Dichloro-phenyl)-4-(4-methanesulfonyl-piperazin-1-yl)-N-methyl-N-(4-pyridin-4-yl-benzyl)-butyramide], for which the Ki amounted to 315 nM. For `CN(Cc1ccccc1Cl)C(=O)C(CCN1CCN(S(C)(=O)=O)CC1)c1ccc(Cl)c(Cl)c1` (stereo not shown) [Example 3, N-(2-Chloro-benzyl)-2-(3,4-dichloro-phenyl)-4-(4-methanesulfonyl-piperazin-1-yl)-N-methyl-butyramide], the Ki worked out at 655 nM.

As to `CN(Cc1ccccc1)C(=O)C(CCN1CCN(S(C)(=O)=O)CC1)c1ccc(Cl)c(Cl)c1` (stereo not shown) [Example 4, N-Benzyl-2-(3,4-dichloro-phenyl)-4-(4-methanesulfonyl-piperazin-1-yl)-N-methyl-butyramide], the inhibition constant Ki worked out at 355 nM.

`CN(Cc1ccc(C(F)(F)F)cc1)C(=O)C(CCN1CCN(S(C)(=O)=O)CC1)c1ccc(Cl)c(Cl)c1` (stereo not shown) [Example 5, 2-(3,4-Dichloro-phenyl)-4-(4-methanesulfonyl-piperazin-1-yl)-N-methyl-N-(4-trifluoromethyl-benzyl)-butyramide]: the Ki turned out to be 136 nM.

`COc1ccc(CN(C)C(=O)C(CCN2CCN(S(C)(=O)=O)CC2)c2ccc(Cl)c(Cl)c2)cc1F` (stereo not shown) [Example 6, 2-(3,4-Dichloro-phenyl)-N-(3-fluoro-4-methoxy-benzyl)-4-(4-methanesulfonyl-piperazin-1-yl)-N-methyl-butyramide]: the Ki came out at 690 nM. The same measure for `CN(Cc1cccc(F)c1)C(=O)C(CCN1CCN(S(C)(=O)=O)CC1)c1ccc(Cl)c(Cl)c1` (stereo not shown) [Example 7, 2-(3,4-Dichloro-phenyl)-N-(3-fluoro-benzyl)-4-(4-methanesulfonyl-piperazin-1-yl)-N-methyl-butyramide]: 388 nM; for `CC(CCN1CCN(S(C)(=O)=O)CC1)(C(=O)NCc1cccc(C(F)(F)F)c1)c1ccc(Cl)c(Cl)c1` (stereo not shown) [Example 8, 2-(3,4-Dichloro-phenyl)-4-(4-methanesulfonyl-piperazin-1-yl)-2-methyl-N-(3-trifluoromethyl-benzyl)-butyramide]: 288 nM. The same measure for `CC(CCN1CCN(S(C)(=O)=O)CC1)(C(=O)NCc1cccc(OC(F)(F)F)c1)c1ccc(Cl)c(Cl)c1` (stereo not shown) [Example 9, 2-(3,4-Dichloro-phenyl)-4-(4-methanesulfonyl-piperazin-1-yl)-2-methyl-N-(3-trifluoromethoxy-benzyl)-butyramide]: 190 nM; for `CN(Cc1cccc(Cl)c1)C(=O)C(C)(CCN1CCN(S(C)(=O)=O)CC1)c1ccc(Cl)c(Cl)c1` (stereo not shown) [Example 10, N-(3-Chloro-benzyl)-2-(3,4-dichloro-phenyl)-4-(4-methanesulfonyl-piperazin-1-yl)-2,N-dimethyl-butyramide]: 145 nM; for `CC(CCN1CCN(S(C)(=O)=O)CC1)(C(=O)NCc1cccc(OC(F)F)c1)c1ccc(Cl)c(Cl)c1` (stereo not shown) [Example 11, 2-(3,4-Dichloro-phenyl)-N-(3-difluoromethoxy-benzyl)-4-(4-methanesulfonyl-piperazin-1-yl)-2-methyl-butyramide]: 417 nM. For `CN(Cc1ccc(Cl)cc1)C(=O)C(C)(CCN1CCN(S(C)(=O)=O)CC1)c1ccc(Cl)c(Cl)c1` (stereo not shown) [Example 12, N-(4-Chloro-benzyl)-2-(3,4-dichloro-phenyl)-4-(4-methanesulfonyl-piperazin-1-yl)-2,N-dimethyl-butyramide] the value was 66.4 nM. For the compound `CC(CCN1CCN(S(C)(=O)=O)CC1)(C(=O)NCc1ccc(OC(F)F)cc1)c1ccc(Cl)c(Cl)c1` (stereo not shown) [Example 13, 2-(3,4-Dichloro-phenyl)-N-(4-difluoromethoxy-benzyl)-4-(4-methanesulfonyl-piperazin-1-yl)-2-methyl-butyramide], the Ki was determined as 326 nM. For `CC(NC(=O)C(C)(CCN1CCN(S(C)(=O)=O)CC1)c1ccc(Cl)c(Cl)c1)c1ccc(Cl)cc1` (stereo not shown) [Example 14, N-[1-(4-Chloro-phenyl)-ethyl]-2-(3,4-dichloro-phenyl)-4-(4-methanesulfonyl-piperazin-1-yl)-2-methyl-butyramide] the value was 171 nM; for `COc1ccc(C(NC(=O)C(C)(CCN2CCN(S(C)(=O)=O)CC2)c2ccc(Cl)c(Cl)c2)C2CC2)cc1` (stereo not shown) [Example 15, N-[Cyclopropyl-(4-methoxy-phenyl)-methyl]-2-(3,4-dichloro-phenyl)-4-(4-methanesulfonyl-piperazin-1-yl)-2-methyl-butyramide], 234 nM. For `CN(Cc1ccccc1Cl)C(=O)C(C)(CCN1CCN(S(C)(=O)=O)CC1)c1ccc(Cl)c(Cl)c1` (stereo not shown) [Example 16, N-(2-Chloro-benzyl)-2-(3,4-dichloro-phenyl)-4-(4-methanesulfonyl-piperazin-1-yl)-2,N-dimethyl-butyramide], the Ki was found to be 169 nM. `CC(CCN1CCN(S(C)(=O)=O)CC1)(C(=O)NCc1ccc(OC(F)(F)F)cc1)c1ccc(Cl)c(Cl)c1` (stereo not shown) [Example 17, 2-(3,4-Dichloro-phenyl)-4-(4-methanesulfonyl-piperazin-1-yl)-2-methyl-N-(4-trifluoromethoxy-benzyl)-butyramide]: the inhibition constant Ki was 146 nM. The same measure for `CC(CCN1CCN(S(C)(=O)=O)CC1)(C(=O)NCc1ccc(C#N)cc1)c1ccc(Cl)c(Cl)c1` (stereo not shown) [Example 18, N-(4-Cyano-benzyl)-2-(3,4-dichloro-phenyl)-4-(4-methanesulfonyl-piperazin-1-yl)-2-methyl-butyramide]: 434 nM.
